Legend:
NTR = NTR (Escherichia coli, UniProt P38489)
Procedure: Dose-dependence Activation of BL660-NTR (FIG. 4a) by NTR: The response of BL660-NTR (5 μM) against different concentrations of NTR was measured in a 96-well culture plate and was monitored using the IVIS imaging system. BL660-NTR was incubated with either 0.01 U or 0.1 U NTR at 37° C. for 15 min before the wells were treated with ATP-MgSO4 and luciferase to initiation bioluminescence production. Light was collected immediately after mixing, and the signal enhancement was determined relative to control wells not treated with enzyme. The total volume of each well was 100 μL (PBS (pH 7.4) with 0.5% DMSO). All data is reported as the mean±standard deviation (n=5).

A549 cells [1] = assay: MTT cytotoxicity assay of BL660-NTR; format: cell-based; conditions: 0 to 20 μM, up to 3 hours
Procedure: Prior to testing BL660-NTR in vivo, we assessed potential cytotoxicity by treating A549 cells with BL660-NTR across a concentration range of 0 to 20 μM for up to 3 hours.
MTT Cytotoxicity Assay. 24-well plates were seeded with 180,000 cells per well (500 μL of 360,000 cells/mL) and incubated at 37° C. with 5% CO2 for 24 h (˜70% confluent). Media was removed and fresh RPMI 1640 media with 10% FBS containing 0, 5, 10 or 20 μM BL660-NTR (1% DMSO final v/v) was added. The media was removed after 1 and 3 h and replaced with 500 μL of a 20:1 mixture of FBS-free RPMI 1640 and (3-(4,5-dimethylthiazol-2-yl)-2,5-diphenyl-tetrazolium bromide (MTT, 5 mg/mL stock in PBS). The cells were incubated for 2 h under the same conditions and then the medium was removed and replaced with DMSO (500 μL/well). The absorbance of each well was recorded after a 1:5 dilution in DMSO at 555 nm on a microplate reader. Viability was calculated by the absorbance relative to the vehicle control. Values are reported as the mean±standard deviation (n=3).

A549 cells [2] = assay: Detection of NTR activity in A549 lung cancer cells cultured in hypoxia or normoxia, lysate BL imaging; format: cell-based
Procedure: Next, we performed a cell imaging study to measure hypoxia within a living system. Specifically, A549 cells (not expressing Luc) were cultured in an atmosphere consisting of 1% or 20% oxygen for 2 days to mimic hypoxic conditions (1%) or normoxic (20%), respectively. Because aryl nitro reduction mediated by mammalian NTRs can be inhibited by molecular oxygen, we expect there to be greater probe activation under oxygen-deficient conditions. After incubating with BL660-NTR for 60 minutes, the cells were washed with fresh PBS, detached, pelleted, and lysed via sonication. The lysates were then transferred to 24-well plates, treated with luciferase and imaged immediately using the IVIS imaging system. […] This represents a significant 4.5-fold difference in BL intensity.
A549 cells were seeded in T75 culture flasks and incubated in 1% or 20% oxygen atmosphere for 48 hours. A solution of BL660-NTR in DMSO (2 mM, 50 μL) was quickly added into each flask such that the final concentration of the probe is 10 μM and 0.5% DMSO. The cells were incubated with the probe for 60 minutes (under the respective culture conditions), washed with fresh PBS, and detached from the culture flasks. The cells were then transferred to a 15 mL centrifuge tube and pelleted at 1000 rpm for 5 min at room temp. The cells (4.25×10^6 cells/mL) were then resuspended in PBS along with 10% protease inhibitor solution (1 protease inhibitor mini tablet per 10 mL PBS, Pierce, Thermo Fisher Scientific) and sonicated on ice for 2.5 minutes (pulse 01, 01, 40%). The cell debris was removed via centrifugation at 4° C. The cell lysates were further diluted 2.5-fold by PBS and 475 μL were transferred into 24-well plates (n=4 for each condition), treated with luciferase (25 μL, 0.25 mg/mL), and imaged immediately using the IVIS imaging system. Bioluminescence light was collected in open mode (no filters were applied). ROIs were drawn around each well. The signal intensity was quantified using the Living Image Analysis Software.

A549-Luc2 tumors = assay: BL imaging of tumor hypoxia in a lung cancer model; format: in vivo, NU/J mice; conditions: for BL signal in the tumors (in words): 5 to 75 min after retroorbital injection; for BL signal in the tumors (in words) / total luminescent count in tumors after 15 mins: 2.2 μmol/kg; for total luminescent count in tumors after 15 mins: NU/J mice with A549-Luc2 tumors
Procedure: NU/J mice (male, ˜5-weeks old) were inoculated with A549-Luc2 lung cancer cells (5×10^6) in both flanks. Testing of BL660-NTR commenced after tumors had grown to a volume of ˜300 mm^3 (˜4 weeks). First, we performed imaging using BL660-NTR, which was administered systemically via retroorbital injection (ROI) (FIG. 5a (upper horizontal row of points) and FIG. 14). ROIs were drawn around each tumor and the luminescent count was summed for each animal. […] The BL intensity appears to decrease slightly after 15 mins and levels off until the end of the experiment (75 mins) (FIG. 5c).
Next, to distinguish between NTR activation and off-target ester hydrolysis, we employed Compound (4) as a control reagent, which only differs in that the nitro trigger is absent (FIG. 1a). After approximately 20 hours, the same animals were treated with Compound (4) and imaged (FIG. 5b and FIG. 15). This delay was to ensure the probe had fully cleared from the first experiment. […] The total luminescent count after 15 mins for Compound 4 was only 4.0±0.7×10^3; whereas the corresponding readout was 16.6±2.5×10^3 for BL660-NTR. This represents a […] difference, indicating successful detection of tumor hypoxia (FIG. 5d).
NU/J mice bearing A549-Luc2 tumors were anesthetized using isoflurane (1-3% for maintenance; up to 5% for induction) in oxygen from a precision vaporizer. After testing to ensure animals are fully under anesthesia, an initial background scan is recorded. BL660-NTR or compound 4 formulated in 3:7 v/v DMSO:PBS. The solution was filtered through a […] sterile filter immediately prior to use. The typical injection volume is ˜100 μM at a dose of 2.2 μmol/kg. The solution was then administered via retroorbital injection. Images were captured using the IVIS® imaging system at 5, 15, 30, 45, 60, and 75 minutes after injection. Bioluminescence light was collected in open mode (no filters were applied). Regions of interest (“ROIs”) were drawn around each tumor and summed for each animal. The signal intensity was quantified using the Living Image Analysis Software and is represented in FIGS. 5c and 5d.
Generation of a Subcutaneous Lung Cancer Model: A549 cells were treated with vehicle (media only) or 50 μM DETA NONOate in media for 10 days. Cells were washed with PBS, resuspended in serum-free media (Hams F-12K), and mixed 1:1 with Geltrex (v/v) (to a final concentration of 5×10^7 cells/mL). Tumors were generated by subcutaneously injecting 100 μL of these cell solutions into the flanks of 4-week-old Nu/J mice (The Jackson Laboratory stock #: 002019).
BL660-NTR was dissolved in DMSO and diluted with PBS (3:7 v/v DMSO:PBS). The solution was filtered through a […] sterile filter immediately prior to use. The typical injection volume is ˜100 μM at a dose of 2.2 μmol/kg.
Compound 4 was dissolved in DMSO and diluted with PBS (3:7 v/v DMSO:PBS). The solution was filtered through a […] sterile filter immediately prior to use. The typical injection volume is ˜100 μM at a dose of 2.2 μmol/kg.

[3] = 5 μM, 50 equiv analyte, 37° C., 30 min
Procedure: For instance, transition metals like Cu(II) can facilitate ester hydrolysis via Lewis acid-mediated ester activation. Additionally, various reactive oxygen and nitrogen that can interact with the ester bond were also tested. Lastly, we also examined reactive sulfur species, which are known to reduce aryl nitro groups.
Analyte Selectivity Assay for BL660-NTR. […] Light was collected within 15 min after mixing, and the signal enhancement was determined relative to control wells not treated with analyte. The total volume of each well was 100 μL [PBS (pH 7.4) with 0.5% DMSO]. Metal ion solutions were prepared by dissolving in MilliQ H2O before use. Superoxide anion was added as a solution of potassium superoxide in DMSO. Hydroxide radical was generated according to the previously reported literature. Similarly, peroxynitrite was prepared according to the reported literature. NO was generated in situ from a solution of DEA-NONOate in degassed PBS buffer. Glutathione reduced form was maintained at the final concentration of 5 mM in the reaction mixture. H2S was generated just before use according to the reported literature. NTR was used one unit per well. All other analytes were prepared by dilution or dissolution from commercially available sources.

[4] = Hydrolytic stability of BL660 esters in PBS, luciferase BL readout; format: physicochemical; conditions: PBS pH 7.4, 37° C.; versus Compound (1)
Procedure: We began our analysis of stability by incubating BL660 esters of Compound (1), Compound (2), and Compound (3) at 37° C. in PBS (phosphate-buffered saline) (pH 7.4). After 1, 6, and 12 hours, luciferase was added (10mU, 37° C., pH 7.4) to initiate BL production. The rate of hydrolysis, reported as total luminescence counts per hour, indicates hydrolysis in descending order is: Compound (1) (13.9±1.4×10^3); Compound (2) (3.3±0.6×10^3), and Compound (3) (1.0±0.1×10^3) (FIG. 1b, wherein the esters are indicated on the horizontal axis) and FIG. 8 (wherein the respective timeline plots are identified beneath the horizontal axis as (1), (2), etc.). Luminescent counts were recorded using an IVIS In Vivo Imaging System. […] Without wishing to be bound by any theory, we speculate hydrolysis of (3) may involve an SN1 mechanism, thus favoring formation of a double benzylic carbocation.

porcine liver esterase = assay: Esterase reactivity: treatment with porcine liver esterase, BL readout; format: in vitro ADME; conditions: porcine liver esterase 0.1 units/mL; versus Compound (1)
Description: The enzymatic rates, reported as total luminescence counts per minute, in descending order are: Compound (1) (31.0±6.8×10^2), (3) (9.5±1.2×10^2), and (2) (0.6±0.1×10^2) (FIG. 1c and FIG. 9). The greater stability imparted by the aromatic ring is not surprising since esterase reactivity can be readily attenuated with bulkier substituents.

[5] = Hydrolytic stability of Compound (4) in Britton-Robinson buffer at pH 5, 7.4 and 9; format: physicochemical; conditions: 10 μM
Procedure: (§1) Following this set of experiments, we subjected Compound (4) to acidic (pH 5) and alkaline (pH 9) conditions to account for the various pH gradients in the body. For these experiments we used the Britton-Robinson buffer system. […] These include lipase, human carboxyesterase-2, monoacylglycerol lipase, fatty acid amide hydrolase, and aldehyde dehydrogenase 1A1.
Compound (4) (10 μM final concentration with 1% DMSO) was first incubated in Britton-Robinson buffer (pH 5, 7.4 and 9) at 37° C. for 2, 3 and 4 hrs. Then the pH's were adjusted to 7.4. Luminescence was measured by blocking excitation light and measuring emissions with 660 nm gating. Total volume of the reaction mixture was maintained at 100 μL. To the 50 μL of this reaction mixture was ATP-MgSO4 (45 μL, prepared by mixing 17.78 mM ATP-Mg and 35.56 mM MgSO4 in 1:1 ratio in PBS buffer) and the reaction was initiated with Luciferase (5 μL, 0.25 mg/mL in PBS containing 10% glycerol).

[6] = test system: lipase, human carboxyesterase-2, monoacylglycerol lipase, fatty acid amide hydrolase, and aldehyde dehydrogenase 1A1; assay: Enzyme selectivity assay for Compound 4 against panel of ester-cleaving enzymes; format: in vitro ADME; conditions: 5 μM, 10 mU of each enzyme (ALDH 1A1 100 nM), 37° C.
Procedure: as §1
Enzyme Selectivity Assay for Compound 4. […] Compound 4 was incubated with 10 mU of each enzyme at 37° C. for 30 min before ATP-MgSO4 and luciferase were added to initiate bioluminescence production. […] ALDH 1A1 was used at a final concentration of 100 nM.

4T1-Luc cells = assay: Ester stability in live 4T1-Luc cells, BL imaging; format: cell-based, murine; conditions: 10 μM, 30 mins at 37° C.
Procedure: First, we prepared BL660-Me, a methyl ester derivative of BL660 as shown in FIG. 2a for comparison to the benzyl ester (4) of FIG. 1a. Next, we cultured 4T1 murine breast cancer cells, stably expressing the luciferase enzyme (4T1-Luc). The cells were then treated with a DMSO (dimethyl sulfoxide) vehicle control, BL660-Me or Compound (4) (FIG. 3a and FIG. 10a, b, c respectively?). Imaging was performed using the IVIS In Vivo Imaging System.
4T1-Luc cell was cultured in phenol red-free RPMI 1640 (ATCC) with 10% fetal bovine serum (FBS, Sigma Aldrich), and 1% penicillin/streptomycin (Corning).
Evaluation of BL660-Me and 4 in 4T1-Luc Cells. 4T1-Luc cells (180K) were seeded into 24-well plates and incubated for 24 hours. The cells were ˜85% confluent. The media was removed and replaced with serum-free RPMI 1640. An initial background scan was recorded on an IVIS imaging system in open mode where no filters were applied. Cells were then treated with DMSO (2.5 μL, 0.5%), BL660-Me, or compound 4 in DMSO (10 μM final concentration). After 30 minutes incubation at 37° C., bioluminescence was collected. ROIs were drawn around each well. The total luminescence count for each well for a given condition was averaged. The signal intensity was quantified using the Living Image Analysis Software.

[7] = 15 mins after retroorbital injection

Chain of NTR (P38489 whole entry): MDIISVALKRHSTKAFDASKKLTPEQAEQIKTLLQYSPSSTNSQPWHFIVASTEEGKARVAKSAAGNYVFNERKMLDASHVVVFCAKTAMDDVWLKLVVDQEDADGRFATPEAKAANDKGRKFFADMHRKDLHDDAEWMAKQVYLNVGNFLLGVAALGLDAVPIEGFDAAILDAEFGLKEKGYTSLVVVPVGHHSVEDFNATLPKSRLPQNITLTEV

resistance to hydrolysis relative to the parent benzyl ester [4] | esterase stability relative to the parent benzyl ester (porcine liver esterase) | activation on exposure to ester-cleaving enzymes [6] | SMILES | total luminescence signal, NTR absent (NTR; BL660-NTR 5 μM and luciferase without NTR) | total luminescence count, probe, NTR and luciferase all present (NTR; BL660-NTR 5 μM, NTR 0.1 units, luciferase 0.0125 mg/mL) | cell viability (A549 cells [1]) | difference in BL intensity, hypoxic versus normoxic (A549 cells [2]; 1% versus 20% oxygen) [fold] | total luminescent counts, hypoxic lysates (A549 cells [2]; A549 cells in 1% oxygen for 2 days, 10 μM probe 60 minutes) | total luminescent counts, normoxic lysates (A549 cells [2]; A549 cells in 20% oxygen for 2 days, 10 μM probe 60 minutes) | BL signal in the tumors (in words) (A549-Luc2 tumors) | difference in total luminescent count, BL660-NTR versus Compound 4 (A549-Luc2 tumors; [7]) [fold] | total luminescent count in tumors after 15 mins (A549-Luc2 tumors; [7]) | activation by analytes compared to the NTR positive control [3] [%] | rate of hydrolysis at pH 5.0 ([5]; Britton-Robinson buffer pH 5.0, 37° C., 2, 3 and 4 hrs) | rate of hydrolysis at pH 7.4 ([5]; Britton-Robinson buffer pH 7.4, 37° C., 2, 3 and 4 hrs) | rate of hydrolysis at pH 9.0 ([5]; Britton-Robinson buffer pH 9.0, 37° C., 2, 3 and 4 hrs) | total luminescence count (4T1-Luc cells)
– | – | – | CCN(CC)c1ccc(C=CC=CC2=NC(C(=O)OC(c3ccc([N+](=O)[O-])cc3)C(C)C)CS2)cc1 (stereo not shown) [BL660-NTR] | significantly attenuated | notable increase in the total luminescence count | No loss of cell viability | 4.5 | 5.0±0.1×10^5 total luminescent counts | 1.1±0.03×10^5 total luminescent counts | strong BL signals were apparent in all tumors | 5.2 | 16.6±2.5×10^3 total luminescent count | ≤ 10 | – | – | – | –
about 140 fold | about 68 fold | minimal activation | CCN(CC)c1ccc(C=CC=CC2=NC(C(=O)OC(c3ccccc3)C(C)C)CS2)cc1 (stereo not shown) [Compound (4)] | – | – | – | – | – | – | barely discernable from background | – | 4.0±0.7×10^3 total luminescent count | – | 25.7±9.6×10^2 total luminescence counts per hour | 8.6±1.3×10^2 total luminescence counts per hour | 52.8±20.7×10^2 total luminescence counts per hour | 3.1±1.2×10^3 total luminescence count

Source: patent publication US20240158359A1, “HYDROLYSIS-RESISTANT ESTERS FOR DRUG AND IMAGING AGENT DELIVERY” (The Board of Trustees of the University of lllinois, priority 2022, published 2024)
